Values after ≈ are worked out from the molar mass of the structure shown.
Experiments:
bleeding time = assay: Effect on bleeding time (in vivo); design: species or system ddy-male mice; settings: Mus musculus; oral, 3 hours before tail cut; dose required to induce at least 50% prolongation of bleeding time vs control; read-out: minimum effective dose, prolonging effect on the bleeding time
Description: A test compound (suspended or dissolved in an aqueous 0.25% carboxymethylcellulose solution) was orally administered to ddy-male mice (5 weeks old, 10 mice per group) fasted overnight. Three hours later, the tip (ca. 2 mm) of the tail was cut off under ether anesthesia, and said tail was immersed in physiological saline (37° C.) immediately. The bleeding time (seconds) of the medicated group of mice was compared with that of a control group of mice to which an aqueous 0.25% CMC solution was administered instead of the test compound solution. The prolonging effect of each test compound on the bleeding time was estimated in terms of a minimum effective dose, i.e., the dose required to induce at least 50% prolongation of the bleeding time as compared with that of the control group.

[1] = test system: arachidonic acid-induced pulmonary embolism; assay: Effect on arachidonic acid-induced pulmonary embolism (in vivo); design: species or system ddy-male mice; settings: Mus musculus; oral, 3 hours before arachidonic acid; dose required to shorten the recovery time by at least 15% vs control; read-out: Minimum Effective Dose, inhibiting effect on arachidonic acid-induced pulmonary embolism
Description: A test compound (suspended or dissolved in an aqueous sodium bicarbonate and 0.25% carboxymethylcellulose solution) was orally administered to ddy-male mice (5 weeks old, 10 mice per group) fasted overnight. Three hours later, arachidonic acid (125 mg/2.5 ml of 1% NaHCO3 solution+7.5 ml of 0.9% aqueous sodium chloride/kg) was injected to the tail vein of mice to induce pulmonary embolism, and the recovery time(minutes) of locomotive activity of the mice (i.e., the duration from the injection of arachidonic acid to the time the mice recovered from respiratory distress and began to walk) was compared with that of a control group of mice to which an aqueous 0.25% CMC solution was administered instead of the test compound solution. The inhibiting effect of each test compound on arachidonic acid-induced pulmonary embolism was estimated in terms of a minimum effective dose, i.e., the dose required to shorten the recovery time by at least 15% as compared with the control group.

[2] = test system: collagen-induced platelet aggregation; assay: Effect on collagen-induced platelet aggregation (in vitro); format: cell-based, human; settings: for IC50: 2 min, human platelet-rich plasma, 4×10^5 cells/mm^3, 2 minutes at 37° C., Born's method, read-out: IC50, collagen-induced platelet aggregation-inhibiting activity
Description: Nine volumes of blood collected from a healthy human were mixed with one volume of 3.13% (w/v) trisodium citrate solution, and the mixture was centrifuged to give platelet-rich plasma ("PRP") as the supernatant. The bottom layer was further centrifuged to give platelet-poor plasma ("PPP") as the supernatant. PRP was diluted with PPP so that the platelet count was about 4×10^5 cells/mm^3. 25 μl of a test compound solution containing an equimolar amount of sodium bicarbonate was added to 200 μl of said diluted PRP. After the mixture was stirred for 2 minutes at 37° C., a collagen solution [25-29 μg/ml solution: Biochim. Biophys. Acta, 186, 254 (1969)] was added thereto to induce platelet aggregation. The degree of platelet aggregation was examined by Born's method (Nature, 194, 927 (1962)), and the platelet aggregation-inhibiting activity of the test compound was estimated. The platlet aggregation-inhibiting activity of the test compound was expressed as IC50, i.e., the concentration of the test compound required to induce 50% inhibition of collagen-induced platelet aggregation.

Structure (SMILES) | minimal effective dose (bleeding time) | minimal effective dose [1] | IC50 [2] | platelet aggregation-inhibiting activity relative to 4-(2-benzenesulfonylaminoethyl)phenoxyacetic acid ([2]; in vitro, times as strong as known compound of JP 35910/1982)
CC(CNS(=O)(=O)c1ccc(Br)cc1)c1ccc(OCC(=O)O)cc1 (racemic) [Compound No. 3, (±)4-[2(4-bromophenyl)sulfonylamino-1-methylethyl]phenoxyacetic acid] | 10 mg/kg | 0.1 mg/kg | 0.5 µg/mL (≈ 1.17 µM) | –
CC(CNS(=O)(=O)c1ccc(Cl)cc1)c1ccc(OCC(=O)O)cc1 (racemic) [Compound No. 2, (±)4-[2(4-chlorophenyl)sulfonylamino-1-methylethyl]phenoxyacetic acid] | 10 mg/kg | 0.3 mg/kg | 0.5 µg/mL (≈ 1.3 µM) | about 4 times
O=C(O)COc1ccc(CCNS(=O)(=O)c2ccccc2)cc1 [Known Compound, 4-(2-benzenesulfonylaminoethyl)phenoxyacetic acid, reference compound] | 30 mg/kg | 30 mg/kg | 2 µg/mL (≈ 5.96 µM) | –
CC(CNS(=O)(=O)c1ccccc1)c1ccc(OCC(=O)O)c(F)c1 (racemic) [Compound No. 4, (±)4-(2-benzenesulfonylamino-1-methylethyl)-2-fluorophenoxyacetic acid] | – | 0.1 mg/kg | – | –
CC(CNS(=O)(=O)c1ccc(Cl)cc1)c1ccc(OCC(=O)O)c(F)c1 (racemic) [Compound No. 5, (±)4-(2-(4-chlorophenyl)sulfonylamino-1-methylethyl)-2-fluorophenoxyactic acid] | – | 0.03 mg/kg | – | –
CC(Cc1ccc(OCC(=O)O)cc1)NS(=O)(=O)c1ccc(Cl)cc1 (racemic) [Compound No. 1, (±)4-[2(4-chlorophenyl)sulfonylaminopropyl]phenoxyacetic acid] | 3 mg/kg | 1 mg/kg | 0.7 µg/mL (≈ 1.82 µM) | –

Reference: US4866196A, “Phenoxyacetic acid derivatives and preparation thereof” (Tanabe Seiyaku Co., Ltd., priority 1986, dated 1989)
